From patent US20040138200A1, “Pharmaceutical compositions for treatment of Parkinson's disease” (priority 2002, published 2004)
Where a name gives a salt, the structure may show the parent alone.

Assay: rotating disk dissolution test
Type: physicochemical
Details: 300 rpm; for Rotating Disk Dissolution Rate (RDDR): crystalline salt, 20 mg pellet, about 500 ml dissolution medium at 25° C., slope normalized to initial exposed surface area
Source text: In a preferred aspect, the salts of the present invention are crystalline salts. A crystalline salt of the invention dissolves slower than the crystalline maleate salt of the same compound under standard conditions of temperature, pressure, and fluid flow. Preferably, the dissolution rate of a crystalline salt of the invention, when measured by a rotating disk dissolution test, is less than 50% of that of a crystalline maleate salt of the same compound. More preferably, the dissolution rate is less than 25% of that of a crystalline maleate salt of the same compound. More preferably, the dissolution rate is less than 10% of that of a crystalline maleate salt of the same compound. For example, under the standard conditions in a rotating disc dissolution test, the maleate salt crystals dissolved at a rotating disc dissolution rate (RDDR) of 0.44 mmole sec^−1 cm^−2, whereas the xinafoate salt crystals dissolved at a rate of 0.03 mmole sec^−1 cm^−2 (see FIG. 1). In preferred embodiments, the salt of the invention the salt has a dissolution rate into aqueous solution of about 0.40 mmole sec^−1 cm^−2 or less. In more preferred embodiments, the salt of the invention the salt has a dissolution rate into aqueous solution of about 0.20 mmole sec^−1 cm^−2 or less. In more preferred embodiments, the salt of the invention the salt has a dissolution rate into aqueous solution of about 0.05 mmole sec^−1 cm^−2 or less.
Dissolution rates of sumanirole from xinafoate and maleate crystalline salts were determined using a rotating disk apparatus. In this apparatus, a die containing a pellet comprising a substance of interest is attached to an arm connected to a small motor. The die is submerged in about 500 ml of a dissolution medium at 25° C., and rotated at 300 rpm. The concentration of a compound released into solution is measured in a series of time points using an in situ UV/vis absorbance dip probe linked to a digital computer. For testing the dissolution rates of sumanirole xinafoate and sumanirole maleate crystalline salts, 20 mg of the xinafoate crystalline salt and 20 mg of the maleate crystalline salt were each pressed into pellets of uniform shape at 1000 pounds (3700 psi) for 1 minute. Each pellet was then subjected to dissolution in a rotating disc dissolution apparatus. Measurements of the amount of sumanirole dissolved into the medium, recorded as milligrams of free base equivalent of sumanirole, were plotted against time (FIG. 1). The slope of each curve, normalized to the initial exposed surface area of each disk, was used to calculate a Rotating Disk Dissolution Rate (RDDR) for each salt.

| SMILES | Rotating Disk Dissolution Rate (RDDR) [mmole sec^−1 cm^−2] | Rotating Disk Dissolution Rate (RDDR) (listed as maleate salt) [mmole sec^−1 cm^−2] | Rotating Disk Dissolution Rate (RDDR) (listed as xinafoate salt) [mmole sec^−1 cm^−2] | dissolution rate relative to the rate of the sumanirole maleate crystalline salt (rotating disk dissolution, 25° C.) |
| --- | --- | --- | --- | --- |
| CN[C@@H]1Cc2cccc3[nH]c(=O)n(c23)C1 [sumanirole maleate, (R)-5,6-dihydro-5-(methylamino)-4H-imidazo[4,5,1-ij]quinolin-2(1H)-one, reference compound] | 0.44 | 0.44 | – | – |
| CN[C@@H]1Cc2cccc3[nH]c(=O)n(c23)C1 [sumanirole xinafoate, (R)-5,6-dihydro-5-(methylamino)-4H-imidazo[4,5,1-ij]quinolin-2(1H)-one] | 0.030 | – | 0.03 | less than 10% |
